Source: ChEMBL document CHEMBL1131555 (Bioorg Med Chem Lett, 1998)

The molecules below were run against T1, Androgen receptor (Homo sapiens, UniProt P10275).
T1 sequence (P10275 whole entry): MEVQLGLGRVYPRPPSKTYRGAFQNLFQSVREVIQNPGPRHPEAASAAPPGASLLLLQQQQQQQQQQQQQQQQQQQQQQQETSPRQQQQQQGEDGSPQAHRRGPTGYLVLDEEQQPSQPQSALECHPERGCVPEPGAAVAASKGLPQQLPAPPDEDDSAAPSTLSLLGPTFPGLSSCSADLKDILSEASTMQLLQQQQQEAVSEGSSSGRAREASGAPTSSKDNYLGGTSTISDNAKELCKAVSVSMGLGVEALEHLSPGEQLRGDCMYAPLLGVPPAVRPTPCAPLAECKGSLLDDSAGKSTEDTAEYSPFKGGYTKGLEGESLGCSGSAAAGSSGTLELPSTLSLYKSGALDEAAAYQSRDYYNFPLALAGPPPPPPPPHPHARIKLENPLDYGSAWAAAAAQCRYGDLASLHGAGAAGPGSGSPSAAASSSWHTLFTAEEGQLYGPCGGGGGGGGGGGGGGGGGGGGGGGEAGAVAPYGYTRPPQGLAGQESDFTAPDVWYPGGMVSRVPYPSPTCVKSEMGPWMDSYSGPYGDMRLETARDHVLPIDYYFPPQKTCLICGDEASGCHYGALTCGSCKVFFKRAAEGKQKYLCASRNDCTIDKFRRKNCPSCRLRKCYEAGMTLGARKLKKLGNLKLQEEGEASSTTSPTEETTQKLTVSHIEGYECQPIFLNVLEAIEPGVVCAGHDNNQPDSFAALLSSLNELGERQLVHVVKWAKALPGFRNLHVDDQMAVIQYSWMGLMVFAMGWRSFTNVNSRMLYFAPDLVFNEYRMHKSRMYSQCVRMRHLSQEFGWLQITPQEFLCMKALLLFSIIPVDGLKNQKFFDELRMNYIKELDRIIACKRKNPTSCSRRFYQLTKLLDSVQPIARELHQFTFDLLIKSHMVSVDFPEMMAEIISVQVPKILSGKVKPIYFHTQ
Description: Displacement of DHT from human androgen receptor
Work on `CCCCC1Oc2ccc(Cl)cc2-c2ccc3c(c21)C(C)=CC(C)(C)N3` (stereo not given) yielded a Ki of 886 nM.
`CC1=CC(C)(C)Nc2ccc3c(c21)C(CCC(C)C)Oc1ccccc1-3` (stereo not given) gave a Ki of 1480 nM.
Work on `CCCCC1Oc2ccc(C)cc2-c2ccc3c(c21)C(C)=CC(C)(C)N3` (stereo not given) yielded a Ki of 903 nM.
For `CC1=CC(C)(C)Nc2ccc3c(c21)C(C)Oc1ccc(F)cc1-3` (stereo not given), the Ki was 456 nM.
For `CCCOC1Oc2ccc(Cl)cc2-c2ccc3c(c21)C(C)=CC(C)(C)N3` (stereo not given), the Ki was 697 nM.
`CC1=CC(C)(C)Nc2ccc3c(c21)C(C)Oc1ccc(Cl)cc1-3` (stereo not given) was tested, and the Ki was 621 nM.
In the case of `CCCCC1Oc2ccc(OC)cc2-c2ccc3c(c21)C(C)=CC(C)(C)N3` (stereo not given), the Ki is reported as 785 nM.
With `CCCCC1Oc2ccccc2-c2ccc3c(c21)C(C)=CC(C)(C)N3` (stereo not given) the Ki was 2050 nM.
`CCCCC1Oc2ccc(F)cc2-c2ccc3c(c21)C(C)=CC(C)(C)N3` (stereo not given) was tested, and the Ki was 1330 nM.
In the case of `C=CCC1Oc2ccccc2-c2ccc3c(c21)C(C)=CC(C)(C)N3` (stereo not given), the Ki is reported as over 1000 nM.

Each molecule was assayed against T2, Glucocorticoid receptor (Homo sapiens, UniProt P04150).
T2 sequence (P04150 whole entry): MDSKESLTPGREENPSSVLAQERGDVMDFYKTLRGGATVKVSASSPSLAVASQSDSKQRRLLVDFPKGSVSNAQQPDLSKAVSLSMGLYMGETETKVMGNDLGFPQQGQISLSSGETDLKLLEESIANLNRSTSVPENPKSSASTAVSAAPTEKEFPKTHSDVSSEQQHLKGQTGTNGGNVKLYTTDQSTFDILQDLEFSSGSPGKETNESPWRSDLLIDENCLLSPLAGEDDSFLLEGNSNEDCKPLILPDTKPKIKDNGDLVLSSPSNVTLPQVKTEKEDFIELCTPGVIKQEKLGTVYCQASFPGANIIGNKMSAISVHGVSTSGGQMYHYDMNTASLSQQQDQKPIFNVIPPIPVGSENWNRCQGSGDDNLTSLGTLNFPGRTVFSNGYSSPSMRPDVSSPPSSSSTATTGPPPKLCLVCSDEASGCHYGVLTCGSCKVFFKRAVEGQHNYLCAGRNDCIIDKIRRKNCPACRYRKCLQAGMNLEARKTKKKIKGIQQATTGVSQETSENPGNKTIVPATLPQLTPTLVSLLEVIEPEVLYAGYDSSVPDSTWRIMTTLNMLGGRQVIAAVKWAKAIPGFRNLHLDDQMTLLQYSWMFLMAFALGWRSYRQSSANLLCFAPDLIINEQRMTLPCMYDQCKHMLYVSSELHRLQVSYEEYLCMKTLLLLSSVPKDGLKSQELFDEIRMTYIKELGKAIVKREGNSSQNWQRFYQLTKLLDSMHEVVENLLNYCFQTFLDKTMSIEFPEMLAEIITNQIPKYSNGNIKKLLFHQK
Description: Displacement of Dexamethasone from human glucocorticoid receptor
`CCCCC1Oc2ccc(Cl)cc2-c2ccc3c(c21)C(C)=CC(C)(C)N3` (stereo not given) gave a Ki of 394 nM.
Molecule `CC1=CC(C)(C)Nc2ccc3c(c21)C(CCC(C)C)Oc1ccccc1-3` (stereo not given) has a Ki of 158 nM.
With `CCCCC1Oc2ccc(C)cc2-c2ccc3c(c21)C(C)=CC(C)(C)N3` (stereo not given) the Ki was 51 nM.
Molecule `CC1=CC(C)(C)Nc2ccc3c(c21)C(C)Oc1ccc(F)cc1-3` (stereo not given) has a Ki of 749 nM.
`CCCOC1Oc2ccc(Cl)cc2-c2ccc3c(c21)C(C)=CC(C)(C)N3` (stereo not given) gave a Ki of 260 nM.
Molecule `CC1=CC(C)(C)Nc2ccc3c(c21)C(C)Oc1ccc(Cl)cc1-3` (stereo not given) has a Ki of 367 nM.
In the case of `CCCCC1Oc2ccc(OC)cc2-c2ccc3c(c21)C(C)=CC(C)(C)N3` (stereo not given), the Ki is reported as 130 nM.
For `CCCCC1Oc2ccccc2-c2ccc3c(c21)C(C)=CC(C)(C)N3` (stereo not given), the Ki was 813 nM.
`CCCCC1Oc2ccc(F)cc2-c2ccc3c(c21)C(C)=CC(C)(C)N3` (stereo not given) showed a Ki of 533 nM.
Work on `C=CCC1Oc2ccccc2-c2ccc3c(c21)C(C)=CC(C)(C)N3` (stereo not given) yielded a Ki of 889 nM.
